Reference: patent US6849661B2, “Treatment of abnormal increases in gastrointestinal motility with (R)-verapamil” (AGI Therapeutics, Ltd., priority 2002, dated 2005)
Where “and” joins values, the source holds several entries; their conditions need not be identical. Equal entries are not always repeated. Where two headings read alike, the source gives them in different places.

Key:
[1] = system: rat colon tissue; test: Relaxation of KCl (80 mM)-induced contractions in rat colon tissue (tissue bath); type: cell-based; settings: for IC50 / pIC50 (−log M), Colon: KCl 80 mM contracted rat colon
Method: Rat colon tissue was prepared and mounted in a tissue bath by standard methods familiar to those skilled in the art. The physiological medium contained KCl at a concentration of 80 mM, which produces contractions of the colon tissue. […] Potency was expressed as the concentration producing 50% of […] (IC50) or as the negative logarithm of the IC50 (pIC50).
Other compounds were tested for their ability to relax the KCl contractions, or block the relaxing action of verapamil.

[2] = system: rat aortic tissue; settings: for pIC50 (−log M), Aorta / IC50: KCl 80 mM contracted rat aorta; for IC50: read-out: IC50 (M), Aorta
Method: Rat aortic tissue was prepared and mounted in a tissue bath by standard methods familiar to those skilled in the art. The physiological medium contained KCl at a concentration of 80 mM, which produces contractions of the aortic tissue.

[3] = system: rat vas prostatic tissue; test: Contractions to electrical stimulation in rat vas deferens, prostatic portion; type: cell-based; settings: FIG. 3
Excerpt: (§1) In rat vas deferens there are two components to nerve stimulation, an […] component, dominant in the epididymal portion, and a non-adrenergic (purinergic) component, dominant in the prostatic portion. […] (Brown et al., Br J Pharmacol., 79:379-393, 1983).

[4] = system: rat vas epididymal tissue; test: Contractions in rat vas deferens, epididymal portion (in the presence of nifedipine); type: cell-based; settings: high concentrations, FIG. 3
Excerpt: as §1

Row | SMILES | IC50 [1] | pIC50 (−log M), Colon [1] | pIC50 (−log M), Aorta [2] | IC50 [2] | effect on contractions to electrical stimulation in vas prostatic tissue [3] | effect on epididymal contraction [4] | ability to relax the KCl contractions ([1]; rat colon) | also measured
1 | COc1ccc(CCN(C)CCC[C@](C#N)(c2ccc(OC)c(OC)c2)C(C)C)cc1OC [(R)-verapamil] | 851 nM | 6.07±0.16 −log M | 5.35±0.24 −log M | 4.47e-06 M and 4.78e-06 M | neither (R)-verapamil nor (S)-verapamil abolished contractions | reduced this epididymal contraction |  | pIC50 (−log M), Colon ([1]; listed as R Isomer): 6.07 −log M; times less potent than (S)-verapamil in the intestine ([1]; rat colon): three; pIC50 (−log M), Aorta ([2]; listed as R Isomer): 5.35 −log M; times less potent than (S)-verapamil in the aorta ([2]; rat aorta): 10 times; IC50 ([2]; listed as R Isomer): 4.47e-06 M
2 | COc1ccc(CCN(C)CCC[C@@](C#N)(c2ccc(OC)c(OC)c2)C(C)C)cc1OC [(S)-verapamil] | 295 nM | 6.53±0.13 −log M and 6.32±0.03 −log M | 6.32±0.03 −log M | 4.78e-07 M | neither (R)-verapamil nor (S)-verapamil abolished contractions | reduced this epididymal contraction |  | times more potent than (R)-verapamil in colon ([1]; rat colon, concentrations tested 1-100 μM): approximately 3 times
3 | COc1ccc(Cl)cc1C(=O)NCCc1ccc(S(=O)(=O)NC(=O)NC2CCCCC2)cc1 [Glibenclamine] |  |  |  |  |  |  |  | ability to block the relaxing action of verapamil on KCl contractions ([1]; rat colon): did not block the verapamil-induced relaxations
4 | COc1cc2nc(N3CCN(C(=O)c4ccco4)CC3)nc(N)c2cc1OC [Prazosin] |  |  |  |  |  |  | did not significantly relax KCl contractions | 
5 | Cc1cccc(C)c1N=C1NCCCS1 [Xylazine] |  |  |  |  |  |  | small relaxation of the contractions, but only at the highest concentration tested (10^−4M) | 
